Data: PubChem BioAssay (NCI)
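Compound exposure: 48 hours, 5 concentrations, 96-well plates. TGI: concentration producing complete growth inhibition.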

Tests used:
Assay in all cases: NCI-60 cell line screen, 48 h
DU-145 prostate = system: DU-145 prostate
SF-539 CNS = system: SF-539 CNS
HT29 colon = system: HT29 colon
LOX IMVI melanoma = system: LOX IMVI melanoma
HCC-2998 colon = system: HCC-2998 colon
SK-MEL-2 melanoma = system: SK-MEL-2 melanoma
HCT-15 colon = system: HCT-15 colon
OVCAR-8 ovarian = system: OVCAR-8 ovarian
OVCAR-3 ovarian = system: OVCAR-3 ovarian
CAKI-1 renal = system: CAKI-1 renal
SF-268 CNS = system: SF-268 CNS
RXF 393 renal = system: RXF 393 renal
SNB-19 CNS = system: SNB-19 CNS
M14 melanoma = system: M14 melanoma
RPMI-8226 leukemia = system: RPMI-8226 leukemia
KM12 colon = system: KM12 colon
IGROV1 ovarian = system: IGROV1 ovarian
BT-549 breast = system: BT-549 breast
SW-620 colon = system: SW-620 colon
786-0 renal = system: 786-0 renal

CN(C)c1nc2n(CCO)c(-c3ccccc3)c(-c3ccccc3)nc-2c(=O)n1
TGI (DU-145 prostate): > 100 µM
TGI (SF-539 CNS): > 100 µM
TGI (HT29 colon): > 100 µM
TGI (LOX IMVI melanoma): > 100 µM
TGI (HCC-2998 colon): > 100 µM
TGI (SK-MEL-2 melanoma): > 100 µM
TGI (HCT-15 colon): > 100 µM
TGI (OVCAR-8 ovarian): > 100 µM
TGI (OVCAR-3 ovarian): > 100 µM
TGI (CAKI-1 renal): > 100 µM
TGI (SF-268 CNS): > 100 µM
TGI (RXF 393 renal): > 100 µM
TGI (SNB-19 CNS): > 100 µM
TGI (M14 melanoma): > 100 µM
TGI (RPMI-8226 leukemia): > 100 µM
TGI (KM12 colon): > 100 µM
TGI (IGROV1 ovarian): > 100 µM
TGI (BT-549 breast): > 100 µM
TGI (SW-620 colon): > 100 µM
TGI (786-0 renal): > 100 µM

O=C(O)c1ccccc1CC1Cc2ccc3c(c2C1=O)CCC3 (stereo unspecified)
TGI (DU-145 prostate): > 100 µM
TGI (SF-539 CNS): > 100 µM
TGI (HT29 colon): > 100 µM
TGI (LOX IMVI melanoma): > 100 µM
TGI (HCC-2998 colon): > 100 µM
TGI (SK-MEL-2 melanoma): > 100 µM
TGI (HCT-15 colon): > 100 µM
TGI (OVCAR-8 ovarian): > 100 µM
TGI (OVCAR-3 ovarian): > 100 µM
TGI (CAKI-1 renal): > 100 µM
TGI (SF-268 CNS): > 100 µM
TGI (RXF 393 renal): > 100 µM
TGI (SNB-19 CNS): > 100 µM
TGI (M14 melanoma): > 100 µM
TGI (RPMI-8226 leukemia): > 100 µM
TGI (KM12 colon): > 100 µM
TGI (IGROV1 ovarian): > 100 µM
TGI (BT-549 breast): > 100 µM
TGI (SW-620 colon): > 100 µM
TGI (786-0 renal): > 100 µM

c1ccc(C2SCc3nc4cc5ccccc5cc4n32)cc1 (stereo unspecified)
TGI (DU-145 prostate): > 100 µM
TGI (SF-539 CNS): > 100 µM
TGI (HT29 colon): > 100 µM
TGI (LOX IMVI melanoma): > 100 µM
TGI (HCC-2998 colon): > 100 µM
TGI (SK-MEL-2 melanoma): > 100 µM
TGI (HCT-15 colon): > 100 µM
TGI (OVCAR-8 ovarian): > 100 µM
TGI (OVCAR-3 ovarian): > 100 µM
TGI (CAKI-1 renal): > 100 µM
TGI (SF-268 CNS): > 100 µM
TGI (RXF 393 renal): > 100 µM
TGI (SNB-19 CNS): > 100 µM
TGI (M14 melanoma): > 100 µM
TGI (RPMI-8226 leukemia): > 100 µM
TGI (KM12 colon): > 100 µM
TGI (IGROV1 ovarian): > 100 µM
TGI (BT-549 breast): > 100 µM
TGI (SW-620 colon): > 100 µM
TGI (786-0 renal): > 100 µM

O=c1oc2nc(-c3ccccc3)cc(C(F)(F)F)c2n1Cc1ccccc1
TGI (DU-145 prostate): > 100 µM
TGI (SF-539 CNS): > 100 µM
TGI (HT29 colon): > 100 µM
TGI (LOX IMVI melanoma): > 100 µM
TGI (HCC-2998 colon): > 100 µM
TGI (SK-MEL-2 melanoma): > 100 µM
TGI (HCT-15 colon): > 100 µM
TGI (OVCAR-8 ovarian): > 100 µM
TGI (OVCAR-3 ovarian): > 100 µM
TGI (CAKI-1 renal): > 100 µM
TGI (SF-268 CNS): > 100 µM
TGI (RXF 393 renal): > 30.3 µM
TGI (SNB-19 CNS): > 100 µM
TGI (M14 melanoma): > 82.9 µM
TGI (RPMI-8226 leukemia): > 30.8 µM
TGI (KM12 colon): > 100 µM
TGI (IGROV1 ovarian): > 43.5 µM
TGI (BT-549 breast): > 100 µM
TGI (SW-620 colon): > 100 µM
TGI (786-0 renal): > 100 µM

COC(=O)[C@]12CSC[C@H]1C[C@H](c1ccccc1OC)N2
TGI (DU-145 prostate): > 100 µM
TGI (SF-539 CNS): > 100 µM
TGI (LOX IMVI melanoma): > 100 µM
TGI (HCC-2998 colon): > 100 µM
TGI (SK-MEL-2 melanoma): > 100 µM
TGI (HCT-15 colon): > 100 µM
TGI (OVCAR-8 ovarian): > 100 µM
TGI (OVCAR-3 ovarian): > 100 µM
TGI (CAKI-1 renal): > 100 µM
TGI (SF-268 CNS): > 100 µM
TGI (RXF 393 renal): > 100 µM
TGI (SNB-19 CNS): > 100 µM
TGI (M14 melanoma): > 100 µM
TGI (RPMI-8226 leukemia): > 100 µM
TGI (KM12 colon): > 100 µM
TGI (IGROV1 ovarian): > 100 µM
TGI (BT-549 breast): > 100 µM
TGI (SW-620 colon): > 100 µM
TGI (786-0 renal): > 100 µM

Fc1ccc(OCc2nc3cc(C(F)(F)F)ccc3nc2-c2ccccc2)cc1
TGI (DU-145 prostate): > 100 µM
TGI (SF-539 CNS): > 100 µM
TGI (HT29 colon): 64.9 µM
TGI (LOX IMVI melanoma): > 100 µM
TGI (HCC-2998 colon): > 100 µM
TGI (SK-MEL-2 melanoma): > 100 µM
TGI (HCT-15 colon): > 100 µM
TGI (OVCAR-8 ovarian): > 100 µM
TGI (OVCAR-3 ovarian): > 100 µM
TGI (CAKI-1 renal): > 100 µM
TGI (SF-268 CNS): > 100 µM
TGI (RXF 393 renal): > 100 µM
TGI (SNB-19 CNS): > 100 µM
TGI (M14 melanoma): > 100 µM
TGI (RPMI-8226 leukemia): > 100 µM
TGI (KM12 colon): > 100 µM
TGI (IGROV1 ovarian): > 100 µM
TGI (BT-549 breast): > 100 µM
TGI (SW-620 colon): > 100 µM
TGI (786-0 renal): > 100 µM

O=C(O)C1=C(C(=O)O)N(c2ccncc2)C(c2ccco2)=CC1c1ccccc1[N+](=O)[O-] (stereo unspecified)
TGI (DU-145 prostate): 24.9 µM
TGI (SF-539 CNS): 4.55 µM
TGI (HT29 colon): 3.2 µM
TGI (LOX IMVI melanoma): 4.02 µM
TGI (HCC-2998 colon): 3.57 µM
TGI (SK-MEL-2 melanoma): 37.3 µM
TGI (HCT-15 colon): 4.25 µM
TGI (OVCAR-8 ovarian): > 59 µM
TGI (OVCAR-3 ovarian): 23.5 µM
TGI (CAKI-1 renal): 34.6 µM
TGI (SF-268 CNS): 36.1 µM
TGI (RXF 393 renal): 21.3 µM
TGI (SNB-19 CNS): 35.5 µM
TGI (M14 melanoma): 22.5 µM
TGI (RPMI-8226 leukemia): > 24.6 µM
TGI (KM12 colon): 3.36 µM
TGI (IGROV1 ovarian): 4.84 µM
TGI (BT-549 breast): 30 µM
TGI (SW-620 colon): > 27.1 µM
TGI (786-0 renal): 4.06 µM

O=C(CC(C(=O)c1ccco1)c1cccs1)c1cccs1 (stereo unspecified)
TGI (DU-145 prostate): > 100 µM
TGI (SF-539 CNS): > 100 µM
TGI (HT29 colon): > 100 µM
TGI (LOX IMVI melanoma): > 100 µM
TGI (HCC-2998 colon): > 100 µM
TGI (SK-MEL-2 melanoma): > 100 µM
TGI (HCT-15 colon): > 100 µM
TGI (OVCAR-8 ovarian): > 100 µM
TGI (OVCAR-3 ovarian): > 100 µM
TGI (CAKI-1 renal): > 100 µM
TGI (SF-268 CNS): > 100 µM
TGI (RXF 393 renal): > 100 µM
TGI (SNB-19 CNS): > 100 µM
TGI (M14 melanoma): > 100 µM
TGI (RPMI-8226 leukemia): > 100 µM
TGI (KM12 colon): > 100 µM
TGI (IGROV1 ovarian): > 100 µM
TGI (BT-549 breast): > 100 µM
TGI (SW-620 colon): > 100 µM
TGI (786-0 renal): > 100 µM

O=C1c2ccccc2C(=O)c2c1ccc1nc3c(nc21)-c1c2ccccc2cc2cccc-3c12
TGI (DU-145 prostate): > 81.7 µM
TGI (SF-539 CNS): > 100 µM
TGI (HT29 colon): > 100 µM
TGI (LOX IMVI melanoma): > 100 µM
TGI (HCC-2998 colon): > 100 µM
TGI (SK-MEL-2 melanoma): > 100 µM
TGI (HCT-15 colon): > 100 µM
TGI (OVCAR-8 ovarian): > 100 µM
TGI (OVCAR-3 ovarian): > 100 µM
TGI (CAKI-1 renal): > 100 µM
TGI (SF-268 CNS): > 100 µM
TGI (RXF 393 renal): > 100 µM
TGI (SNB-19 CNS): > 100 µM
TGI (M14 melanoma): > 100 µM
TGI (RPMI-8226 leukemia): > 100 µM
TGI (KM12 colon): > 94.9 µM
TGI (IGROV1 ovarian): > 57.4 µM
TGI (BT-549 breast): > 100 µM
TGI (SW-620 colon): > 100 µM
TGI (786-0 renal): > 100 µM

Cc1cccc2c(N)c3cccc(C(=O)NCC[N+](C)(C)Cc4sccc4[N+](=O)[O-])c3nc12
TGI (DU-145 prostate): > 100 µM
TGI (SF-539 CNS): 14.4 µM
TGI (HT29 colon): 18.6 µM
TGI (LOX IMVI melanoma): 61 µM
TGI (HCC-2998 colon): 20.8 µM
TGI (SK-MEL-2 melanoma): > 100 µM
TGI (HCT-15 colon): > 100 µM
TGI (OVCAR-8 ovarian): 35.9 µM
TGI (OVCAR-3 ovarian): > 100 µM
TGI (CAKI-1 renal): 43.9 µM
TGI (SF-268 CNS): > 100 µM
TGI (RXF 393 renal): 33.4 µM
TGI (SNB-19 CNS): > 100 µM
TGI (M14 melanoma): 32.8 µM
TGI (KM12 colon): 28.2 µM
TGI (IGROV1 ovarian): > 100 µM
TGI (BT-549 breast): 66.2 µM
TGI (SW-620 colon): > 100 µM
TGI (786-0 renal): > 100 µM

Cc1n[nH]c(=O)n1/N=C/c1cccs1
TGI (DU-145 prostate): > 100 µM
TGI (SF-539 CNS): > 100 µM
TGI (HT29 colon): > 100 µM
TGI (LOX IMVI melanoma): > 100 µM
TGI (HCC-2998 colon): > 100 µM
TGI (SK-MEL-2 melanoma): > 100 µM
TGI (HCT-15 colon): > 100 µM
TGI (OVCAR-8 ovarian): > 100 µM
TGI (OVCAR-3 ovarian): > 100 µM
TGI (CAKI-1 renal): > 100 µM
TGI (SF-268 CNS): > 100 µM
TGI (RXF 393 renal): > 100 µM
TGI (SNB-19 CNS): > 100 µM
TGI (M14 melanoma): > 100 µM
TGI (RPMI-8226 leukemia): > 100 µM
TGI (KM12 colon): > 100 µM
TGI (BT-549 breast): > 100 µM
TGI (SW-620 colon): > 100 µM
TGI (786-0 renal): > 100 µM

O=C(CCCN1CCC2(CC1)NC(=O)c1ccccc1O2)c1ccc(F)cc1
TGI (DU-145 prostate): > 100 µM
TGI (SF-539 CNS): > 100 µM
TGI (HT29 colon): > 100 µM
TGI (LOX IMVI melanoma): > 100 µM
TGI (HCC-2998 colon): > 100 µM
TGI (SK-MEL-2 melanoma): > 100 µM
TGI (HCT-15 colon): > 100 µM
TGI (OVCAR-8 ovarian): > 100 µM
TGI (OVCAR-3 ovarian): > 100 µM
TGI (CAKI-1 renal): > 100 µM
TGI (SF-268 CNS): > 100 µM
TGI (RXF 393 renal): > 100 µM
TGI (M14 melanoma): > 100 µM
TGI (RPMI-8226 leukemia): > 100 µM
TGI (KM12 colon): > 100 µM
TGI (IGROV1 ovarian): > 100 µM
TGI (BT-549 breast): > 100 µM
TGI (SW-620 colon): > 100 µM
TGI (786-0 renal): > 100 µM
